# Measured values from PMC6688997 (Nature Communications, 2019).
# “And” between values parts separate entries of the source, which are not always exact repeats. Identical values can stand only once. Like-named read-outs stand apart in the source and are kept apart here.
# Tests used:
# FAK = FAK (Homo sapiens, UniProt Q05397); assay: Kinase assay, 1 mM ATP; format: biochemical
# BMX = molecular target: T1, BMX (Homo sapiens, UniProt P51813); assay: Kinase assay, ATP Km; format: biochemical
# T1 construct: purchased Carna Biosciences
# MARK4 = MARK4 (Homo sapiens, UniProt Q96L34); assay: Kinase assay, ATP Km; format: biochemical
# MARK4, sequence (Q96L34 whole entry): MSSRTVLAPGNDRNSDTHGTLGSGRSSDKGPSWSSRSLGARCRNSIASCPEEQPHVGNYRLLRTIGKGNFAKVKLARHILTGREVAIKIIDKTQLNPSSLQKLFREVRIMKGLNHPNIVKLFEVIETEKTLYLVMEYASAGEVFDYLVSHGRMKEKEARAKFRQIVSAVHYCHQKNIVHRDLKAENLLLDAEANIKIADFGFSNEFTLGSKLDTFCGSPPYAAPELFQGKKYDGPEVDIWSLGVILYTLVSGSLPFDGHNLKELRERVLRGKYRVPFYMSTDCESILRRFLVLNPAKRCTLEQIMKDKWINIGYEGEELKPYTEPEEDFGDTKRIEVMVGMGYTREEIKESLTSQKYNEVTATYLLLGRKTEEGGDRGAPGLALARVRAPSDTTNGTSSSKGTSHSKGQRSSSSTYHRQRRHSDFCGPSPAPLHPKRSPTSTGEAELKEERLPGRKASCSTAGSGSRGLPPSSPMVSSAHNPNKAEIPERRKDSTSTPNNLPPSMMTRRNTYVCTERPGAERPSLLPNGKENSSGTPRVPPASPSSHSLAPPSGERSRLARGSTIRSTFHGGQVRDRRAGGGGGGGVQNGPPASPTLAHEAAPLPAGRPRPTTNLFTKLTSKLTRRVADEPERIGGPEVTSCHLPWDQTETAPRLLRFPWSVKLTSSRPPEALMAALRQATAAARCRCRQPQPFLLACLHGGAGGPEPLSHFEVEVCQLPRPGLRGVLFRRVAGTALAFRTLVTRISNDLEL
# TNIK = molecular target: T2, TNIK (Homo sapiens, UniProt Q9UKE5); assay: Kinase assay, ATP Km; format: biochemical
# T2 construct: purchased Carna Biosciences
# DAPK1 = DAPK1 (Homo sapiens, UniProt P53355); assay: Kinase assay, ATP Km; format: biochemical
# DAPK1, sequence (P53355 whole entry): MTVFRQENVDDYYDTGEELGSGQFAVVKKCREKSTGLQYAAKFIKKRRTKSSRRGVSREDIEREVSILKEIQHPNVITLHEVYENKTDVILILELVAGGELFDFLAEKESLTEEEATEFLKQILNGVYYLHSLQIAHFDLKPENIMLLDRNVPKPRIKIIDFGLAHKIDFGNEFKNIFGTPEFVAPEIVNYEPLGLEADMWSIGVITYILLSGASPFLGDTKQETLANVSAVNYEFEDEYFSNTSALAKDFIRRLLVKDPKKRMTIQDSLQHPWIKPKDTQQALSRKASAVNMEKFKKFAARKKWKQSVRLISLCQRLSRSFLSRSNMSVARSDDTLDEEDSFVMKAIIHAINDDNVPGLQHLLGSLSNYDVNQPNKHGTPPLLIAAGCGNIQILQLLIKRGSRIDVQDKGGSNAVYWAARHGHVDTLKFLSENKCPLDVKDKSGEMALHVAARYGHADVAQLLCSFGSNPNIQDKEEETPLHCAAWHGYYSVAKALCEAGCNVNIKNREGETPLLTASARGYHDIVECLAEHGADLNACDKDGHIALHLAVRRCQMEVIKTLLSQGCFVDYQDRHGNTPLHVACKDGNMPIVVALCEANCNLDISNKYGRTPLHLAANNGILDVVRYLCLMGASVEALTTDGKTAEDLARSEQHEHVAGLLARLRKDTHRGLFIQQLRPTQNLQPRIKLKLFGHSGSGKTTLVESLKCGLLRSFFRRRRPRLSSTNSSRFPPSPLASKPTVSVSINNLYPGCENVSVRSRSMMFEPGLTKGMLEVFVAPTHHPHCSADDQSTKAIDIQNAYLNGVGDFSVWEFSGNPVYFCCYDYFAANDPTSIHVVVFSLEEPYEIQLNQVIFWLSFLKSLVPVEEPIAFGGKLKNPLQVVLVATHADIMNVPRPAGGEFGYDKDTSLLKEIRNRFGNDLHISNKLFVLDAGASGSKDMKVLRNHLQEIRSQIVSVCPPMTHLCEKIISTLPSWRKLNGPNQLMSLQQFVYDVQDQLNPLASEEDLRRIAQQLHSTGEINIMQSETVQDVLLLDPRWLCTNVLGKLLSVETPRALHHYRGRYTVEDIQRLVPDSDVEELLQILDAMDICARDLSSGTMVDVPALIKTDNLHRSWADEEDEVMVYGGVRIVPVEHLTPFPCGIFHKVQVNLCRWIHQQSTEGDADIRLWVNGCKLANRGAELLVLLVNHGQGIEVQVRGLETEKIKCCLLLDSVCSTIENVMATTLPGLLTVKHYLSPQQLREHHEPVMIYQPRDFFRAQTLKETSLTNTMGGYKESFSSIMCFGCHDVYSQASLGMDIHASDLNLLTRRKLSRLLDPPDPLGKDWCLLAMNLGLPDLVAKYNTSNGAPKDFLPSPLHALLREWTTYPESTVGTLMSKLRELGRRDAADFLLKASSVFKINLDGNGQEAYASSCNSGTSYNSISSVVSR
# HER4 = molecular target: T3, HER4 (Homo sapiens, UniProt Q15303); assay: Kinase assay, ATP Km; format: biochemical
# T3 construct: purchased Carna Biosciences
# T3 sequence (Q15303 26-1308): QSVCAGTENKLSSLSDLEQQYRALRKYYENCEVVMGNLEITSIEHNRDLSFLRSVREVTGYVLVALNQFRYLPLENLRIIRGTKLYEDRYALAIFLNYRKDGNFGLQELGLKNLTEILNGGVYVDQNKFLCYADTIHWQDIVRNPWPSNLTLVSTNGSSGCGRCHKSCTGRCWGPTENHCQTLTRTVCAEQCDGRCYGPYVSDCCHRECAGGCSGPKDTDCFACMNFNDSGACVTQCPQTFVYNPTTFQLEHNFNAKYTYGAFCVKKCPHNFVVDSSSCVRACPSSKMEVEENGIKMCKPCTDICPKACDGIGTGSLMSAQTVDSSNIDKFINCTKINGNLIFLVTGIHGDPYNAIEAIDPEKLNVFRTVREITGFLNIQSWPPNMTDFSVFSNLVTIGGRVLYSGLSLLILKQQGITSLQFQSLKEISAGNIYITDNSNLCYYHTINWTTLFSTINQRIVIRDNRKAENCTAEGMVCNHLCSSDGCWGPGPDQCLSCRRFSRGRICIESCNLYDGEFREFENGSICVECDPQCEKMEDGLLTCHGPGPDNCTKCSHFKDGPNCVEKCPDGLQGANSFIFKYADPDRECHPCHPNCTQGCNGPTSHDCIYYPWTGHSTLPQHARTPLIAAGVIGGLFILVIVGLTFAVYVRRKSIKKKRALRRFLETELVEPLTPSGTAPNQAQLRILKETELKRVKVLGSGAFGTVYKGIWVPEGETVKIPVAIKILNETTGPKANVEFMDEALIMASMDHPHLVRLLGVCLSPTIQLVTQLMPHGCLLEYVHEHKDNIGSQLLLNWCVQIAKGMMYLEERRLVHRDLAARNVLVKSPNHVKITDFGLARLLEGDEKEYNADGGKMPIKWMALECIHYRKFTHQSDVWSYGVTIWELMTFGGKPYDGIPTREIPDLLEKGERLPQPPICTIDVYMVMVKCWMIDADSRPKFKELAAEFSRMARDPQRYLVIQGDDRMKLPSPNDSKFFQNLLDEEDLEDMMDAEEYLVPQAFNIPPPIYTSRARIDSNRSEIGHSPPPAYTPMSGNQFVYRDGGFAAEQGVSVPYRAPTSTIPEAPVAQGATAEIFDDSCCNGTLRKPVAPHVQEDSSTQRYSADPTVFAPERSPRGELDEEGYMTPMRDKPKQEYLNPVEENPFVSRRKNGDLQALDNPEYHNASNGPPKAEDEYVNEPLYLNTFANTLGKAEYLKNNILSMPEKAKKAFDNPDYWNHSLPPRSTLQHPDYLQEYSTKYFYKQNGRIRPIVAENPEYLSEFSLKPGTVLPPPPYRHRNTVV
# LYNb = molecular target: T4, LYNb (Homo sapiens, UniProt P07948); assay: Kinase assay, ATP Km; format: biochemical
# T4 construct: purchased Carna Biosciences
# TIE2 = molecular target: T5, TIE2 (Homo sapiens, UniProt Q02763); assay: Kinase assay, ATP Km; format: biochemical
# T5 construct: purchased Carna Biosciences
# CSK = CSK (Homo sapiens, UniProt P41240); assay: Kinase assay, ATP Km; format: biochemical
# EPHB3 = EPHB3 (Homo sapiens, UniProt P54753); assay: Kinase assay, ATP Km; format: biochemical
# BUB1/BUB3 = BUB1/BUB3 (Homo sapiens, UniProt O43683); assay: Kinase assay, ATP Km; format: biochemical
# CaMK2γ = CaMK2γ (Homo sapiens, UniProt Q13555); assay: Kinase assay, ATP Km; format: biochemical
# TNK1 = molecular target: T6, TNK1 (Homo sapiens, UniProt Q13470); assay: Kinase assay, ATP Km; format: biochemical
# T6 construct: purchased Carna Biosciences
# IRR = molecular target: T7, IRR (Homo sapiens, UniProt P14616); assay: Kinase assay, ATP Km; format: biochemical
# T7 construct: purchased Carna Biosciences
# AKT2 = AKT2 (Homo sapiens, UniProt P31751); assay: Kinase assay, ATP Km; format: biochemical
# AKT2, sequence (P31751 whole entry): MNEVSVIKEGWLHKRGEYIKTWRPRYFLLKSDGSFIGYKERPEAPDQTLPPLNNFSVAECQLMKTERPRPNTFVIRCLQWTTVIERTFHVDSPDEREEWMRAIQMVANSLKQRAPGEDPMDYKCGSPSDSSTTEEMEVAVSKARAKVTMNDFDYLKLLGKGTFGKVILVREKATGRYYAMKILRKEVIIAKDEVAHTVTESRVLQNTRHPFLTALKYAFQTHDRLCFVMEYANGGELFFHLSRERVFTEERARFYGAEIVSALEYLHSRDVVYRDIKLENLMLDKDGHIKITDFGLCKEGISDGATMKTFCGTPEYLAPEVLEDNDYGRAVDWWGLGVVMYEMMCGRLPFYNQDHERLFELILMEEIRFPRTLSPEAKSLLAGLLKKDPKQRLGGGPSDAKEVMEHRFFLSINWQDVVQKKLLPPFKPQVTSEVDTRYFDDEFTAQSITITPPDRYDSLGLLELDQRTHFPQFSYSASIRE
# SGK3 = molecular target: T8, SGK3 (Homo sapiens, UniProt Q96BR1); assay: Kinase assay, ATP Km; format: biochemical
# T8 construct: purchased Carna Biosciences
# T8 sequence (Q96BR1 whole entry): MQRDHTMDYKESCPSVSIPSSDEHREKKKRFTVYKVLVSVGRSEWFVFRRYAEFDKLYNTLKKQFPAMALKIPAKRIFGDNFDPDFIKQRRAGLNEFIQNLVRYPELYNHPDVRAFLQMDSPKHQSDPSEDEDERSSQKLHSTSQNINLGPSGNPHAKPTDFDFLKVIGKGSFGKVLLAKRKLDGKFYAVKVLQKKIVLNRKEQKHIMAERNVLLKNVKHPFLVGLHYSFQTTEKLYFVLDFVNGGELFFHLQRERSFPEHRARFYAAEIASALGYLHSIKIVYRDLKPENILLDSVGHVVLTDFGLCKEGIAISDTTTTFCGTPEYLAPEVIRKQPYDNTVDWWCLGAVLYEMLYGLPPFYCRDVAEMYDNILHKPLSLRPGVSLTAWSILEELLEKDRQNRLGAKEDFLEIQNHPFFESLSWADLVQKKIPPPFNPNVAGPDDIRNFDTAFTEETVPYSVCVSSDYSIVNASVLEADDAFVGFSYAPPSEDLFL
# Haspin = molecular target: T9, Haspin (Homo sapiens, UniProt Q8TF76); assay: Kinase assay, ATP Km; format: biochemical
# T9 construct: purchased Carna Biosciences
# HIPK3 = molecular target: T10, HIPK3 (Homo sapiens, UniProt Q9H422); assay: Kinase assay, ATP Km; format: biochemical
# T10 construct: purchased Carna Biosciences
# CK2α2/β = CK2α2/β (Homo sapiens, UniProt P19784); assay: Kinase assay, ATP Km; format: biochemical
# PIM1 = PIM1 (Homo sapiens, UniProt P11309); assay: Kinase assay, ATP Km; format: biochemical
# JNK2 = JNK2 (Homo sapiens, UniProt P45984); assay: Kinase assay, ATP Km; format: biochemical
# AurA/TPX2 = AurA/TPX2 (Homo sapiens, UniProt O14965); assay: Kinase assay, ATP Km; format: biochemical
# [1] = system: HCC78 cells (SLC34A2-ROS1); assay: CellTiter-Glo cell viability assay; format: cell-based; details: 72 h
# CRIK = CRIK (Homo sapiens, UniProt O14578); assay: Kinase assay, ATP Km; format: biochemical
# [2] = cited from earlier work
# DCAMKL2 = DCAMKL2 (Homo sapiens, UniProt Q8N568); assay: Kinase assay, ATP Km; format: biochemical
# TEC = molecular target: T11, TEC (Homo sapiens, UniProt P42680); assay: Kinase assay, ATP Km; format: biochemical
# T11 construct: purchased Carna Biosciences
# T11 sequence (P42680 whole entry): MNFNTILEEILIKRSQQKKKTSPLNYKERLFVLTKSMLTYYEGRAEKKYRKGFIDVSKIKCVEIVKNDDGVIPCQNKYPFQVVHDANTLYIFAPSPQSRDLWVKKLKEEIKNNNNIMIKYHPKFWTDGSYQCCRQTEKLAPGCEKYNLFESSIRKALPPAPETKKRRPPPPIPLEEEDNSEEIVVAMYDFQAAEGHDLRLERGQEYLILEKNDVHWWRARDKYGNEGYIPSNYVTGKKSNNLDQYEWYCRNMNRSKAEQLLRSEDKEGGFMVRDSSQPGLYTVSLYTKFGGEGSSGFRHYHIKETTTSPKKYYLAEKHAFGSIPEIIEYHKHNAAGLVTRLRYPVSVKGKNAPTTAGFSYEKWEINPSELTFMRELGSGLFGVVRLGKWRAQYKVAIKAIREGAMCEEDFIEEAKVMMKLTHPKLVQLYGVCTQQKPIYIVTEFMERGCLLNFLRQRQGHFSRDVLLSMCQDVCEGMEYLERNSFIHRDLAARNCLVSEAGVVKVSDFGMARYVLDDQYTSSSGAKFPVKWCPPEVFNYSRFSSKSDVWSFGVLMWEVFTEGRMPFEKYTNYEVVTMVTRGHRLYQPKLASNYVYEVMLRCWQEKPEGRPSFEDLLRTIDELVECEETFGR
# CDK9/CycT1 = CDK9/CycT1 (Homo sapiens, UniProt P50750); assay: Kinase assay, ATP Km; format: biochemical
# CK1γ1 = CK1γ1 (Homo sapiens, UniProt Q9HCP0); assay: Kinase assay, ATP Km; format: biochemical
# PKD2 = molecular target: T12, PKD2 (Homo sapiens, UniProt Q9BZL6); assay: Kinase assay, ATP Km; format: biochemical
# T12 construct: purchased Carna Biosciences
smiles,measurement,setting,value
C[C@@H](N)COc1ccc(-c2cnc3ccc(N[C@H](C)c4cccc(F)c4)nn23)cc1.O=C(O)CCCCC(=O)O [DS-6051b],inhibition at 0.2 µM,FAK,25.1%
same,inhibition at 0.04 µM,BMX,53%
same,inhibition at 0.04 µM,MARK4,22.6%
same,inhibition at 0.04 µM,TNIK,16.4%
same,inhibition at 0.04 µM,DAPK1,6.2%
same,inhibition at 0.04 µM,HER4,22%
same,inhibition at 0.04 µM,LYNb,52.5%
same,inhibition at 0.04 µM,TIE2,13.5%
same,inhibition at 0.04 µM,CSK,-0.441%
same,inhibition at 0.04 µM,EPHB3,22.5%
same,inhibition at 0.04 µM,BUB1/BUB3,-1.8%
same,inhibition at 0.04 µM,CaMK2γ,3.7%
same,inhibition at 0.04 µM,TNK1,59.8%
same,inhibition at 0.04 µM,IRR,69.1%
same,inhibition at 0.04 µM,AKT2,2.3%
same,inhibition at 0.04 µM,SGK3,3.6%
same,inhibition at 0.04 µM,Haspin,4.3%
same,inhibition at 0.04 µM,HIPK3,0.6%
same,inhibition at 0.04 µM,CK2α2/β,-0.6%
same,inhibition at 0.04 µM,PIM1,2.8%
same,inhibition at 0.04 µM,JNK2,-2.4%
same,inhibition at 0.04 µM,AurA/TPX2,5%
same,IC50,[1],lower IC50 than crizotinib
same,inhibition at 0.04 µM,CRIK,-9.6%
same,Mean trough plasma concentration,[2]; 400 mg dosing,~ 320 ng/mL and ~800 nM
same,Peak plasma concentration,[2]; 600 mg dosing in human,around 1650 nM
same,Mean trough plasma concentration,[2]; 600 mg dosing,~480 ng/mL and ~1200 nM
same,inhibition at 0.04 µM,DCAMKL2,5.3%
same,inhibition at 0.04 µM,TEC,37.2%
same,inhibition at 0.04 µM,CDK9/CycT1,8.5%
same,inhibition at 0.04 µM,CK1γ1,2.4%
same,inhibition at 0.04 µM,PKD2,-6.3%
